Results taken from patent publication US11452720B2, “Crystalline polymorphs of the free base of 2-hydroxy-6-((2-(1-isopropyl-1H-pyrazol-5-yl)pyridin-3-yl)methoxy)benzaldehyde” (Global Blood Therapeutics, Inc., priority 2014, dated 2022).
“Also recorded” adds a separate entry of the source. Counter-ions that a name gives are not always drawn.

What was measured:
Type in all cases: physicochemical
[1] = Dynamic vapor sorption (DVS) with post-DVS XRPD; conditions: for DVS weight loss from 95 to 5% RH: desorption 95 to 5% RH; for post-DVS XRPD result: material recovered from the DVS experiment; for DVS weight gain from 5 to 95% RH: sorption 5 to 95% RH
Protocol: Dynamic vapor sorption (DVS) data were collected on a VTI SGA-100 Vapor Sorption Analyzer. NaCl and PVP were used as calibration standards. Samples were not dried prior to analysis. Adsorption and desorption data were collected over a range from 5 to 95% RH at 10% RH increments under a nitrogen purge. The equilibrium criterion used for analysis was less than 0.0100% weight change in 5 minutes with a maximum equilibration time of 3 hours. Data were not corrected for the initial moisture content of the samples.

[2] = Chemical and physical stability evaluation of Free Base Form I (UPLC, XRPD)
Protocol: Three conditions were used; open to 25° C./60% RH, open to 40° C./75% RH, and closed to 60° C. Physical stability was evaluated by XRPD. Chemical stability was determined through UPLC and ^1H NMR, when applicable. Materials were tested after 1, 7, and 14 days of exposure.

[3] = Physical stability of the HCl salt exposed to elevated temperature and/or vacuum (XRPD)
Protocol: Selected materials were stressed at elevated related humidity and/or temperature. Relative humidity jars (saturated salt solutions used to generate desired relative humidity) were utilized to store selected samples. The following relative humidity jars were utilized during evaluation: 75% RH (NaCl) and 60% (NaBr), to investigate the effects of humidity. Temperatures utilized were ambient, 30, 40, 60, and 100-125° C.
Selected materials were stressed under reduced pressure for a set time period. Initial stressing was conducted with the in-house vacuum system with absolute pressure readings <500 mTorr, typically 30 to 50 mTorr (0.030 to 0.05 mm Hg). Additional vacuum stressing was conducted at 48 mmHg utilizing a portable lab vacuum and bleed to simulate conditions similar to those expected during process.
(§1) The HCl salt (termed “HCl Form I”) was subjected to various stress conditions and monitored by XRPD to evaluate physical stability. […] Disproportionation is further evident with wet milling or in direct contact with water (e.g. slurry) as shown by the presence of Free Base Forms I or II, identified by XRPD. […] (after 12 hrs), 40° C. (after 6 hrs), and at 40° C./48 mmHg (after 6 hrs). • Free Base Material C becomes evident at more extreme conditions involving elevated temperatures. Heating HCl Form I up to 125° C. induces the loss of acidic volatiles (judged visually by use of pH paper held above sample). […] Exposing the HCl salt to 60° C. under vacuum for 6 days provides the same result. The nature of Material C is not established

[4] = Physical stability of the HCl salt with grinding (XRPD); conditions: 30 min
Protocol: Selected material was milled utilizing a Reitch Mill. The material was loaded into an agate lined milling vessel followed by the addition of an agate ball. The vessel was then placed on to the mill and milled for approximately 30 minutes at frequency of […]. The milling was stopped approximately every 10 minutes and material scraped from the wall before further milling.

[5] = Physical stability of the HCl salt exposed to water (disproportionation, XRPD)
Protocol: Solutions were prepared by adding enough solids to a given solvent so that excess solids were present. The mixture was then agitated in a sealed vial at either ambient or an elevated temperature. After a given amount of time, the solids were isolated for analysis.
as §1

[6] = Estimated transition temperature and relative thermodynamic stability of free base forms
Source text: Phase transitions of solids can be thermodynamically reversible or irreversible. Crystalline forms which transform reversibly at a specific transition temperature (T) are called enantiotropic polymorphs. If the crystalline forms are not interconvertable under these conditions, the system is monotropic (one thermodynamically stable form). Several rules have been developed to predict the relative thermodynamic stability of polymorphs and whether the relationship between the polymorphs is enantiotropic or monotropic. The heat of fusion rule is applied within this study. The heat of fusion rule states that if the higher melting form has the lower heat of fusion then the two forms are enantiotropic, otherwise they are monotropic.
The estimated transition temperature between two enantiotropically related forms can be calculated from their melt onsets and heats of fusion based on the equation shown below.

[7] = Extended solvent mediated maturation of form II / form N mixtures in hexane; conditions: temperatures of 20° C. and lower
Protocol: Extended solvent mediated maturation studies were conducted with 1:1 w/w mixtures of polymorphic form II and form N. Hexane provided a good medium for solvent assessments. The temperatures used include −20° C., −10° C., 0° C., 10° C., 20° C., 30° C., 40° C. and 50° C. […] Solids derived from maturation at −20° C., −10° C., 0° C., 10° C., 20° C. were analyzed by X-ray powder diffraction.

[8] = Physical stability evaluation of Free Base Form II and Material N (modulated DSC / temperature and humidity exposure, then XRPD); conditions: for change in physical form by XRPD: 40° C./75% RH, 80° C./80% RH for 9 days; for change in physical form by XRPD after modulated DSC: underlying heating rate 0.02° C. min^−1
Protocol: DSC was modulated at low underlying heating rate, followed by X-ray powder diffraction. A low underlying heating rate was used of 0.02° C. min^−1. The temperature was 80° C. for form N and 90° C. for form II. Exposure was essentially isothermal, covering a temperature range with sensitivity to detect changes in physical form. The resultant materials were examined by X-ray powder diffraction.
Forms II and N were exposed to 40° C./75% relative humidity (RH), 80° C., 80° C./80% RH for 9 days followed by X-ray powder diffraction.

[9] = Disproportionation of the sulfate salt when precipitated with water; conditions: from solvents such as dimethyl sulfoxide and methanol when precipitated with water
Source text: This invention arises in part out the discovery that an HCl salt of Compound 1 disproportionates or loses HCl, and a disproportionation of the HCl salt of Compound 1 in water generates the free base and disproportionation was facile upon exposure to elevated humidity, with wet milling, and in direct contact with water (e.g. slurry). The sulfate salt of Compound 1 also disproportionates from certain solvents such as dimethyl sulfoxide and methanol when precipitated with water. The volatilization of HCl was evident within hours of exposure to drying conditions. For example, partial conversion to the free base was observed within 12 hours at 30° C. Accordingly, the free base of Compound 1 provides a stabler chemical entity compared to the corresponding HCl or sulfate and such other salt.

[10] = Ambient storage of Form II, reanalysis by XRPD; conditions: after 7 days
Source text: The form is known to be thermodynamically metastable, relative to Material N, at this condition; however, the kinetics of polymorph conversion may be slow at ambient conditions in the solid state.

CC(C)n1nccc1-c1ncccc1COc1cccc(O)c1C=O [Form I, 2-hydroxy-6-((2-(1-isopropyl-1H-pyrazol-5-yl)pyridin-3-yl)methoxy)benzaldehyde]
hygroscopicity by DVS isotherm [1]: not hygroscopic
weight gain and loss through sorption/desorption ([1]; DVS): 0.2%
DVS weight loss from 95 to 5% RH [1]: 0.22% loss from 95 to 5% RH
DVS weight loss upon equilibration at 5% RH ([1]; equilibration at 5% RH): 0.02% loss upon equilibration at 5% RH
post-DVS XRPD result [1]: predominately Free Base Form I with a few additional peaks; also recorded: Free Base Form I + other Free Base Material
DVS weight gain from 5 to 95% RH [1]: 0.22% gain from 5 to 95% RH
chemical stability: level of impurities by UPLC ([2]; open 25° C./60% RH, open 40° C./75% RH, closed 60° C., after 14 days): did not rise significantly
physical stability by XRPD ([2]; open to 25° C./60% RH, 1, 7 and 14 days): remained unchanged
physical stability by XRPD ([2]; open to 40° C./75% RH and closed to 60° C., after 7 days): Free Base Form II was observed

CC(C)n1nccc1-c1ncccc1COc1cccc(O)c1C=O [HCl salt of Compound 1, 2-hydroxy-6-((2-(1-isopropyl-1H-pyrazol-5-yl)pyridin-3-yl)methoxy)benzaldehyde]
time after which conversion to Free Base Form I was observed by XRPD ([3]; 30° C.): 12 h
XRPD Result ([3]; 30° C., 6 hrs): HCl I
XRPD Result ([3]; 30° C., 12 hrs): HCl I + FB I
XRPD Result ([3]; 30° C., 24 hrs): HCl I + FB I
time within which partial conversion to the free base was observed ([3]; 30° C., drying conditions): ≤ 12 h
time after which conversion to Free Base Form I was observed by XRPD ([3]; 40° C.): 6 h
XRPD Result ([3]; 40° C. vacuum, 6 hrs): HCl I + FB I
XRPD Result ([3]; 40° C. vacuum, 12 hrs): HCl I + FB I
XRPD Result ([3]; 40° C. vacuum, 24 hrs): HCl I + FB I
XRPD Result ([3]; 40° C., 6 hrs): HCl I + FB I
XRPD Result ([3]; 40° C., 12 hrs): HCl I + FB I
XRPD Result ([3]; 40° C., 24 hrs): HCl I + FB I
time after which conversion to Free Base Form I was observed by XRPD ([3]; 40° C./48 mmHg): 6 h
XRPD Result ([3]; 60° C. vacuum, 6 days): HCl I + FB I +
XRPD Result ([3]; 60° C. vacuum, 6 days, listed as HCl salt): same result
XRPD Result ([3]; 60° C., 6 days): HCl I + FB I
XRPD Result ([3]; 100 to 125° C., 20 min): HCl I + FB I +
XRPD Result ([3]; 100 to 125° C., 20 min, listed as HCl Form I): mixture of HCl Form I, Free Base Form I, and Free Base Material C
XRPD Result ([3]; RT vacuum, 6 days): HCl I + FB I
DVS weight loss from 95 to 5% RH [1]: 0.09% loss from 95 to 5% RH
DVS weight gain upon equilibration at 5% RH ([1]; equilibration at 5% RH): 0.03% gain upon equilibration at 5% RH
post-DVS XRPD result [1]: HCl I + Free Base Form I
post-DVS XRPD result ([1]; listed as HCl salt): disproportionation occurred
DVS weight gain from 5 to 95% RH [1]: 0.10% gain from 5 to 95% RH
XRPD Result ([4]; dry): HCl I
XRPD Result ([4]; wet): HCl I + FB I
disproportionation on contact with water ([5]; contact with water): Immediate disproportionation occurs; also recorded: disproportionate immediately
XRPD Result ([5]; vacuum dried, about 1 day): FB I
XRPD Result ([5]; water slurry, about 5 min): Free base (FB) I
XRPD Result ([5]; water slurry, about 5 min, listed as HCl salt): Free Base Form I
XRPD Result ([5]; water slurry, about 6 days): FB I + FB II

CC(C)n1nccc1-c1ncccc1COc1cccc(O)c1C=O [Material N, 2-hydroxy-6-((2-(1-isopropyl-1H-pyrazol-5-yl)pyridin-3-yl)methoxy)benzaldehyde]
Relative Stability ([6]; Below 6° C.): N > II
Relative Stability ([6]; Between 6° C. and T^N-II): N > II > I
relative thermodynamic stability [7]: thermodynamically more stable than form II
change in physical form by XRPD ([8]; 80° C.): No changes in physical form
change in physical form by XRPD after modulated DSC ([8]; 80° C.): No changes in physical form

CC(C)n1nccc1-c1ncccc1COc1cccc(O)c1C=O [sulfate salt of Compound 1, 2-hydroxy-6-((2-(1-isopropyl-1H-pyrazol-5-yl)pyridin-3-yl)methoxy)benzaldehyde]
disproportionation of the salt [9]: disproportionates

CC(C)n1nccc1-c1ncccc1COc1cccc(O)c1C=O [Form II, 2-hydroxy-6-((2-(1-isopropyl-1H-pyrazol-5-yl)pyridin-3-yl)methoxy)benzaldehyde]
Relative Stability ([6]; Above T^N-II): (II > I)
Relative Stability ([6]; Below 6° C.): N > II
Relative Stability ([6]; Between 6° C. and T^N-II): N > II > I
change in physical form by XRPD ([8]; 80° C.): No changes in physical form
change in physical form by XRPD after modulated DSC ([8]; 90° C.): No changes in physical form
XRPD after storage [10]: remained unchanged; also recorded: Free Base Form II
